According to patent US20140329870A1, “COMPOSITIONS COMPRISING ISOSORBIDE MONOESTERS AND ISOTHIAZOLINONES” (CLARIANT INTERNATIONAL LTD., priority 2011, published 2014):
Converted amounts (≈) assume the structure as drawn. Like-named read-outs stand apart in the source and are kept apart here. One block for each compound: values may come before it.

Legend:
[1] = test system: bacteria, fungi and yeasts; conditions: general statement, no test data given, cited from earlier work
[2] = test system: Aspergillus brasiliensis; assay: Minimum inhibitory concentration (MIC) in agar, antimicrobial efficacy; format: cell-based; conditions: Sabouraud 4% dextrose agar pH 5.6
Description: (§1) Below, the antimicrobial efficacy of a composition according to the invention consisting of 50% by weight of isorbide caprylate 1 and 50% by weight of a 2% by weight strength solution of methylisothiazolinone in water against bacteria, fungi and yeasts is examined (hereinbelow, the composition is referred to as “composition A”). For the tests with bacteria, composition A was diluted with butyl polyglycol and then, at 50° C., added to liquid CASO agar (casein-peptone agar) buffered to pH 7 (+/−0.2) in various concentrations (hereinbelow referred to as compositions B1, B2, etc.). For the tests with fungi and yeasts, composition A was diluted with butyl polyglycol and then added to liquid Sabouraud 4% dextrose agar buffered to pH 5.6 (+/−0.2) in various concentrations (hereinbelow referred to as compositions PH1, PH2, etc.). The compositions B1, B2, etc. and PH1, PH2 etc. were each poured into Petri dishes and each inoculated with identical amounts of bacteria, fungi and yeasts. The minimum inhibitory concentration (MIC) is the concentration at which inhibition of the growth of the bacteria, fungi and yeasts in the compositions B1, B2, etc. and PH1, PH2, etc. occurs.
(§2) The minimum inhibitory concentrations for the pure substances isosorbide caprylate 1 and methylisothiazolinone were determined analogously.
(§3) The values determined for the minimum inhibitory concentrations “MIC mixture”, stated in Table 1 below, are based on the concentrations of composition A.
(§4) The values determined for the minimum inhibitory concentrations “QA” and “QB”, stated in Table 1 below, have already been corrected for the dilution effect of the water and the butyl polyglycol.
(§5) Kull et al., Applied Microbiology 1961, 9, 538 using the formula below: […]
(§6) where • Qa is the minimum inhibitory concentration of isosorbide caprylate 1 in the mixture employed, • QA is the minimum inhibitory concentration of isosorbide caprylate 1, • Qb is the minimum inhibitory concentration of methylisothiazolinone in the mixture employed and • QB is the minimum inhibitory concentration of methylisothiazolinone.
(§7) The values for Qa and Qb are determined from the values for the mixtures (“MIC mixture”) by multiplying the minimum inhibitory concentrations determined for Qa with the factor 0.5 and for Qb with the factor 0.01, because of the proportions of the ingredients—50% by weight of isosorbide caprylate 1 and 50% by weight of a 2% by weight strength solution of methylisothiazolinone in water—in composition A according to the invention examined.
(§8) If an SE value >1 is obtained, an antagonistic effect is present.

[3] = test system: Aspergillus terreus; assay: as above; format: cell-based; conditions: Sabouraud 4% dextrose agar pH 5.6
Description: as §1, §2, §3, §4, §5, §6, §7, §8

[4] = test system: Candida albicans; assay: as above; format: cell-based; conditions: Sabouraud 4% dextrose agar pH 5.6
Description: as §1, §2, §3, §4, §5, §6, §7, §8

[5] = test system: Citrobacter freundii; assay: as above; format: cell-based; conditions: CASO agar pH 7
Description: as §1, §2, §3, §4, §5, §6, §7, §8

[6] = test system: Enterobacter aerogenes; assay: as above; format: cell-based; conditions: CASO agar pH 7
Description: as §1, §2, §3, §4, §5, §6, §7, §8

[7] = test system: Escherichia coli; assay: as above; format: cell-based; conditions: CASO agar pH 7
Description: as §1, §2, §3, §4, §5, §6, §7, §8

[8] = test system: Fusarium solani; assay: as above; format: cell-based; conditions: Sabouraud 4% dextrose agar pH 5.6
Description: as §1, §2, §3, §4, §5, §6, §7, §8

[9] = test system: Klebsiella pneumoniae; assay: as above; format: cell-based; conditions: CASO agar pH 7
Description: as §1, §2, §3, §4, §5, §6, §7, §8

[10] = test system: Penicillium funicolosium; assay: as above; format: cell-based; conditions: Sabouraud 4% dextrose agar pH 5.6
Description: as §1, §2, §3, §4, §5, §6, §7, §8

[11] = test system: Penicillium minioluteum; assay: as above; format: cell-based; conditions: Sabouraud 4% dextrose agar pH 5.6
Description: as §1, §2, §3, §4, §5, §6, §7, §8

[12] = test system: Proteus vulgaris; assay: as above; format: cell-based; conditions: CASO agar pH 7
Description: as §1, §2, §3, §4, §5, §6, §7, §8

[13] = test system: Pseudomonas aeruginosa; assay: as above; format: cell-based; conditions: CASO agar pH 7
Description: as §1, §2, §3, §4, §5, §6, §7, §8

[14] = test system: Pseudomonas oleovorans; assay: as above; format: cell-based; conditions: CASO agar pH 7
Description: as §1, §2, §3, §4, §5, §6, §7, §8

[15] = test system: Staphylococcus aureus; assay: as above; format: cell-based; conditions: CASO agar pH 7
Description: as §1, §2, §3, §4, §5, §6, §7, §8

[16] = test system: bacteria, fungi and yeasts; assay: Antimicrobial activity, overall statements on the test series; format: cell-based
Description: as §1, §2, §5

[17] = in composition A, MIC mixture x 0.01
[18] = pure substance, corrected for dilution

Compound: CCCCCCCC(=O)O [caprylic acid, octanoic acid]
- antimicrobial activity (in words) ([1]; at a pH of 6 or above): no antimicrobial activity
- antimicrobial efficacy (in words) [1]: antimicrobially effective

- MIC ([2]; Aspergillus brasiliensis, Table 2): 10000 µg/mL (≈ 68.4 mM)
- MIC ([3]; Aspergillus terreus, Table 2): 10000 µg/mL (≈ 68.4 mM)
- MIC ([4]; Candida albicans, Table 2): 10000 µg/mL (≈ 68.4 mM)
- MIC ([5]; Citrobacter freundii, Table 2): 10000 µg/mL (≈ 68.4 mM)
- MIC ([6]; Klebsiella aerogenes, Table 2): 10000 µg/mL (≈ 68.4 mM)
- MIC ([7]; Escherichia coli, Table 2): 10000 µg/mL (≈ 68.4 mM)
- MIC ([8]; Fusarium solani, Table 2): 10000 µg/mL (≈ 68.4 mM)
- MIC ([9]; Klebsiella pneumoniae, Table 2): 10000 µg/mL (≈ 68.4 mM)
- MIC ([10]; Penicillium, Table 2): 10000 µg/mL (≈ 68.4 mM)
- MIC ([11]; Talaromyces minioluteus, Table 2): 10000 µg/mL (≈ 68.4 mM)
- MIC ([12]; Proteus vulgaris, Table 2): 10000 µg/mL (≈ 68.4 mM)
- MIC ([13]; Pseudomonas aeruginosa, Table 2): 10000 µg/mL (≈ 68.4 mM)
- MIC ([14]; Ectopseudomonas oleovorans, Table 2): 10000 µg/mL (≈ 68.4 mM)
- MIC ([15]; Staphylococcus aureus, Table 2): 10000 µg/mL (≈ 68.4 mM)
Compound: O[C@@H]1CO[C@H]2[C@@H]1OC[C@@H]2O [isosorbide]
- antimicrobial activity (in words) ([16]; as shown by the results of Table 2): neither isosorbide nor isosorbide dicaprylate are antimicrobially active

Compound: Cn1sccc1=O [methylisothiazolinone]
- Qb, calc. (MIC of methylisothiazolinone in the mixture employed) [2, 17]: 10 ppm
- QB, meas. (MIC of methylisothiazolinone) [2, 18]: 100 ppm
- Qb, calc. (MIC of methylisothiazolinone in the mixture employed) [3, 17]: 7.5 ppm
- QB, meas. (MIC of methylisothiazolinone) [3, 18]: 100 ppm
- Qb, calc. (MIC of methylisothiazolinone in the mixture employed) [4, 17]: 10 ppm
- QB, meas. (MIC of methylisothiazolinone) [4, 18]: 100 ppm
- Qb, calc. (MIC of methylisothiazolinone in the mixture employed) [5, 17]: 10 ppm
- QB, meas. (MIC of methylisothiazolinone) [5, 18]: 15 ppm
- Qb, calc. (MIC of methylisothiazolinone in the mixture employed) [6, 17]: 15 ppm
- QB, meas. (MIC of methylisothiazolinone) [6, 18]: 15 ppm
- Qb, calc. (MIC of methylisothiazolinone in the mixture employed) [7, 17]: 10 ppm
- QB, meas. (MIC of methylisothiazolinone) [7, 18]: 10 ppm
- Qb, calc. (MIC of methylisothiazolinone in the mixture employed) [8, 17]: 7.5 ppm
- QB, meas. (MIC of methylisothiazolinone) [8, 18]: 100 ppm
- Qb, calc. (MIC of methylisothiazolinone in the mixture employed) [9, 17]: 15 ppm
- QB, meas. (MIC of methylisothiazolinone) [9, 18]: 15 ppm
- Qb, calc. (MIC of methylisothiazolinone in the mixture employed) [10, 17]: 7.5 ppm
- QB, meas. (MIC of methylisothiazolinone) [10, 18]: 100 ppm
- Qb, calc. (MIC of methylisothiazolinone in the mixture employed) [11, 17]: 7.5 ppm
- QB, meas. (MIC of methylisothiazolinone) [11, 18]: 100 ppm
- Qb, calc. (MIC of methylisothiazolinone in the mixture employed) [12, 17]: 5 ppm
- QB, meas. (MIC of methylisothiazolinone) [12, 18]: 5 ppm
- Qb, calc. (MIC of methylisothiazolinone in the mixture employed) [13, 17]: 20 ppm
- QB, meas. (MIC of methylisothiazolinone) [13, 18]: 40 ppm
- Qb, calc. (MIC of methylisothiazolinone in the mixture employed) [14, 17]: 5 ppm
- QB, meas. (MIC of methylisothiazolinone) [14, 18]: 5 ppm
- Qb, calc. (MIC of methylisothiazolinone in the mixture employed) [15, 17]: 25 ppm
- QB, meas. (MIC of methylisothiazolinone) [15, 18]: 40 ppm

Compound: isosorbide monocaprylate
- antimicrobial activity (in words) ([16]; concluded from Tables 1 and 2): significant antimicrobial activity
